Numbered stars: 1 amine (or outer) side, 2 acyl side, 3 side chain; on linkers, the order of the positions; unused ones are H or OH. Bridge positions count the residues as written; N and C are the ends. Square brackets hold non-standard residues; d marks the D form. Peptide text beside a SMILES is read from it. * marks the point of attachment. X11 = O=C(O)CN1CCN(CC(=O)O)CCN(CC(=O)NCCCC[C@@H](NC(=O)COCCOCCOCCOCCOCCOCCOCCOCCNC(=O)Cc2ccc(Br)cc2)C(=O)NCCOCCOCCOCCOCCOCCOCCOCCOCC(=O)*)CCN(CC(=O)O)CC1; DOTA = O=C(O)CN1CCN(CC(=O)O)CCN(CC(=O)*)CCN(CC(=O)O)CC1; Trp(5-F) = N[C@@H](Cc1c[nH]c2ccc(F)cc12)C(=O)O; Phe(2-CF3) = N[C@@H](Cc1ccccc1C(F)(F)F)C(=O)O; Trp(7-aza) = N[C@@H](Cc1c[nH]c2ncccc12)C(=O)O; Pro(trans-4-F) = O=C(O)[C@@H]1C[C@@H](F)CN1; Lys(Me3) = C[N+](C)(C)CCCC[C@H](N)C(=O)O; PEG8 = NCCOCCOCCOCCOCCOCCOCCOCCOCCC(=O)O; 1Nal = N[C@@H](Cc1cccc2ccccc12)C(=O)O; 2Nal = N[C@@H](Cc1ccc2ccccc2c1)C(=O)O; Gly(4-THP) = N[C@H](C(=O)O)C1CCOCC1; pXylylene = c1cc(C[*:2])ccc1C[*:1]; Nva(3-Et) = CCC(CC)[C@H](N)C(=O)O; Nle = CCCC[C@H](N)C(=O)O; Aze = O=C(O)[C@@H]1CCN1
What follows are compounds tested against T1, human DLL3 (Homo sapiens, UniProt Q9NYJ7) (assay: Affinity determination by Surface Plasmon Resonance (SPR)). Conditions: not given.
T1 sequence (Q9NYJ7 27-618): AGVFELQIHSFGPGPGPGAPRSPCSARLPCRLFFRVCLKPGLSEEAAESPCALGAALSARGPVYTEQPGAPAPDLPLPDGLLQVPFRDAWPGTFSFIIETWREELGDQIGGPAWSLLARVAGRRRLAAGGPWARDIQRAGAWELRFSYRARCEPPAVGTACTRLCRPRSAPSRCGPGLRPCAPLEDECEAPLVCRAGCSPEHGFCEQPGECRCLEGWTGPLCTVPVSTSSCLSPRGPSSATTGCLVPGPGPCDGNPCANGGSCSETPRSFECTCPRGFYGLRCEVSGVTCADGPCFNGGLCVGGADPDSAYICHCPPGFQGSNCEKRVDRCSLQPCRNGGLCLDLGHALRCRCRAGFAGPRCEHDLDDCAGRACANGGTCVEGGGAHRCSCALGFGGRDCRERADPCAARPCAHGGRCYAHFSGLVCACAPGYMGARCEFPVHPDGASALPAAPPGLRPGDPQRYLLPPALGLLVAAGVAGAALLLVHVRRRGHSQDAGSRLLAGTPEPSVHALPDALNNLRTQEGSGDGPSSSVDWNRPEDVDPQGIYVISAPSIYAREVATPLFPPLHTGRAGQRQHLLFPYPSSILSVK
Type: binding
In short: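 Biotinylated human DLL3 was captured on a streptavidin chip with a reference surface. Compounds at several concentrations were injected at 100 μL/minute in phosphate buffer (137 mM NaCl, 2.7 mM KCl, 0.05% P20, 2% DMSO). Affinity and kinetics came from 1:1 model fits of the sensorgrams.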

Row | SMILES | Kd [nM]
1 | CC[C@H](C)[C@H](NC(=O)[C@@H](NC(=O)[C@H](Cc1c[nH]c2ccccc12)NC(C)=O)[C@@H](C)O)C(=O)N[C@H]1CSSC[C@@H](C(=O)N[C@@H](Cc2c[nH]c3ccccc23)C(=O)N2CCC[C@H]2C(=O)N[C@H](CCCCNC(=O)COCCOCCOCCOCCOCCOCCOCCOCCNC(=O)[C@@H](CCCCNC(=O)CN2CCN(CC(=O)O)CCN(CC(=O)O)CCN(CC(=O)O)CC2)NC(=O)COCCOCCOCCOCCOCCOCCOCCOCCNC(=O)Cc2ccc(Br)cc2)C(N)=O)NC(=O)[C@H](CC(=O)O)NC(=O)[C@H](Cc2c[nH]cn2)NC(=O)[C@H](Cc2ccc3ccccc3c2)NC(=O)[C@H](CC(N)=O)NC(=O)[C@H](CC(N)=O)NC1=O [compound 251, Ac-W-T-I-C(3)-N-N-(2Nal)-H-D-C(3)-W-P-{D-Lys[PEG8-D-Lys(DOTA)-PEG8-COCH2Ph-4Br]}-NH2] (Ac-WTICNN[2Nal]HDCWP[dK](X11)-NH2; disulfide 4-10) | < 1
2 | CC[C@H](C)[C@H](NC(=O)[C@@H](NC(=O)[C@H](Cc1c[nH]c2ccccc12)NC(C)=O)[C@@H](C)O)C(=O)N[C@H]1CSSC[C@@H](C(=O)N[C@@H](Cc2c[nH]c3ccccc23)C(=O)N2CCC[C@H]2C(=O)N[C@H](CCCCNC(=O)COCCOCCOCCOCCOCCOCCOCCOCCNC(=O)[C@@H](CCCCNC(=O)CN2CCN(CC(=O)O)CCN(CC(=O)O)CCN(CC(=O)O)CC2)NC(=O)CCOCCOCCOCCOCCOCCOCCOCCOCCOCCOCCOCCOCCOCCOCCOCCOCCOCCOCCOCCOCCOCCOCCOCCOCCNC(=O)Cc2ccc(Br)cc2)C(N)=O)NC(=O)[C@H](CC(=O)O)NC(=O)[C@H](Cc2c[nH]cn2)NC(=O)[C@H](Cc2ccc3ccccc3c2)NC(=O)[C@H](CC(N)=O)NC(=O)[C@H](CC(N)=O)NC1=O [compound 255, Ac-W-T-I-C(3)-N-N-(2Nal)-H-D-C(3)-W-P-{D-Lys[PEG8-D-Lys(DOTA)-PEG24-COCH2Ph-4Br]}-NH2] | 1 to 10

Same assay, conditions: 25° C., biotinylated human DLL3 immobilized on streptavidin sensor chip, 1:1 binding model; read-out: SPR KD

Row | SMILES | Kd [nM]
3 | CCC(CC)[C@H](NC(=O)[C@@H](NC(=O)[C@H](Cc1c[nH]c2ccc(F)cc12)NC(C)=O)[C@@H](C)O)C(=O)N[C@H]1CSSC[C@@H](C(=O)N[C@@H](Cc2c[nH]c3ncccc23)C(=O)N2CC[C@H]2C(=O)N[C@@H](CCCCNC(=O)CN2CCN(CC(=O)O)CCN(CC(=O)O)CCN(CC(=O)O)CC2)C(N)=O)NC(=O)[C@H](CC(=O)O)NC(=O)[C@H](Cc2c[nH]cn2)NC(=O)[C@H](Cc2cccc3ccccc23)NC(=O)[C@H](CC(N)=O)NC(=O)[C@H](CC(N)=O)NC1=O [compound 241, Ac-(5Fluoro-W)-T-(Env)-C(3)-N-N-(1Nal)-H-D-C(3)-(7Aza-W)-(Aze)-[D-Lys(DOTA)]-NH2] (Ac-[Trp(5-F)]T[Nva(3-Et)]CNN[1Nal]HDC[Trp(7-aza)][Aze]K(DOTA)-NH2; disulfide 4-10) | 1 to 10
4 | CC(=O)N[C@@H](Cc1c[nH]c2ccc(F)cc12)C(=O)N[C@H](C(=O)N[C@H](C(=O)N[C@H]1CSSC[C@@H](C(=O)N[C@@H](Cc2c[nH]c3ncccc23)C(=O)N2C[C@H](F)C[C@H]2C(=O)N[C@@H](CCCCNC(=O)CN2CCN(CC(=O)O)CCN(CC(=O)O)CCN(CC(=O)O)CC2)C(N)=O)NC(=O)[C@H](CC(=O)O)NC(=O)[C@H](Cc2c[nH]cn2)NC(=O)[C@H](Cc2ccc3ccccc3c2)NC(=O)[C@H](CC(N)=O)NC(=O)[C@H](CC(N)=O)NC1=O)C1CCOCC1)[C@@H](C)O [compound 243, Ac-(5Fluoro-W)-T-(THPG)-C(3)-N-N-(2Nal)-H-D-C(3)-(7Aza-W)-(trans4Fluoro-P)-[D-Lys(DOTA)]-NH2] (Ac-[Trp(5-F)]T[Gly(4-THP)]CNN[2Nal]HDC[Trp(7-aza)][Pro(trans-4-F)]K(DOTA)-NH2; disulfide 4-10) | < 1
5 | CC(=O)N[C@@H](Cc1c[nH]c2ccc(F)cc12)C(=O)N[C@H](C(=O)N[C@@H](Cc1ccccc1C(F)(F)F)C(=O)N[C@H]1CSSC[C@@H](C(=O)N[C@@H](Cc2c[nH]c3ncccc23)C(=O)N2C[C@H](F)C[C@H]2C(=O)N[C@@H](CCCCNC(=O)CN2CCN(CC(=O)O)CCN(CC(=O)O)CCN(CC(=O)O)CC2)C(N)=O)NC(=O)[C@H](CC(=O)O)NC(=O)[C@H](Cc2cnc[nH]2)NC(=O)[C@H](Cc2ccc3ccccc3c2)NC(=O)[C@H](CC(N)=O)NC(=O)[C@H](CC(N)=O)NC1=O)[C@@H](C)O [compound 246, Ac-(5Fluoro-W)-T-(2CF3-F)-C(3)-N-N-(2Nal)-H-D-C(3)-(7Aza-W)-(trans4Fluoro-P)-[D-Lys(DOTA)]-NH2] (Ac-[Trp(5-F)]T[Phe(2-CF3)]CNN[2Nal]HDC[Trp(7-aza)][Pro(trans-4-F)]K(DOTA)-NH2; disulfide 4-10) | < 1

Next, values leading:

Row | Kd [nM] | SMILES
6 | < 1 | CC[C@H](C)[C@H](NC(=O)[C@@H](NC(=O)[C@H](Cc1c[nH]c2ccccc12)NC(C)=O)[C@@H](C)O)C(=O)N[C@H]1CSSC[C@@H](C(=O)N[C@@H](Cc2c[nH]c3ccccc23)C(=O)N2CCC[C@H]2C(=O)N2CCC[C@@H]2C(=O)NCCOCCOCCOCCOCCOCCOCCOCCOCCC(=O)N[C@H](CCCCNC(=O)CN2CCN(CC(=O)O)CCN(CC(=O)O)CCN(CC(=O)O)CC2)C(N)=O)NC(=O)[C@H](CC(=O)O)NC(=O)[C@H](Cc2cnc[nH]2)NC(=O)[C@H](Cc2ccc3ccccc3c2)NC(=O)[C@H](CC(N)=O)NC(=O)[C@H](CC(N)=O)NC1=O [compound 235, Ac-W-T-I-C(3)-N-N-(2Nal)-H-D-C(3)-W-P-(D-Pro)-PEG8-[D-Lys(DOTA)]-NH2] (Ac-WTICNN[2Nal]HDCWP[dP][PEG8][dK](DOTA)-NH2; disulfide 4-10)
7 | 1 to 10 | CC[C@H](C)[C@H](NC(=O)[C@@H](NC(=O)[C@H](Cc1c[nH]c2ccccc12)NC(C)=O)[C@@H](C)O)C(=O)N[C@H]1CSSC[C@@H](C(=O)N[C@@H](Cc2c[nH]c3ccccc23)C(=O)N2CCC[C@H]2C(=O)N[C@H](CCCCNC(=O)CN2CCN(CC(=O)O)CCN(CC(=O)O)CCN(CC(=O)O)CC2)C(N)=O)NC(=O)[C@H](CC(=O)O)NC(=O)[C@H](CCCC[N+](C)(C)C)NC(=O)[C@H](Cc2ccc3ccccc3c2)NC(=O)[C@H](CC(N)=O)NC(=O)[C@H](CC(N)=O)NC1=O [compound 238, Ac-W-T-I-C(3)-N-N-(2Nal)-(K(Me)3)-D-C(3)-W-P-[D-Lys(DOTA)]-NH2] (Ac-WTICNN[2Nal][Lys(Me3)]DCWP[dK](DOTA)-NH2; disulfide 4-10)
8 | < 1 | CCC(CC)[C@H](NC(=O)[C@@H](NC(=O)[C@H](Cc1c[nH]c2ccc(F)cc12)NC(C)=O)[C@@H](C)O)C(=O)N[C@H]1CSSC[C@@H](C(=O)N[C@@H](Cc2c[nH]c3ncccc23)C(=O)N2C[C@H](F)C[C@H]2C(=O)N[C@@H](CCCCNC(=O)CN2CCN(CC(=O)O)CCN(CC(=O)O)CCN(CC(=O)O)CC2)C(N)=O)NC(=O)[C@H](CC(=O)O)NC(=O)[C@H](Cc2cnc[nH]2)NC(=O)[C@H](Cc2ccc3ccccc3c2)NC(=O)[C@H](CC(N)=O)NC(=O)[C@H](CC(N)=O)NC1=O [compound 242, Ac-(5Fluoro-W)-T-(Env)-C(3)-N-N-(2Nal)-H-D-C(3)-(7Aza-W)-(trans4Fluoro-P)-[D-Lys(DOTA)]-NH2] (Ac-[Trp(5-F)]T[Nva(3-Et)]CNN[2Nal]HDC[Trp(7-aza)][Pro(trans-4-F)]K(DOTA)-NH2; disulfide 4-10)
9 | < 1 | CCCC[C@H](NC(=O)[C@@H](NC(=O)[C@H](Cc1c[nH]c2ccc(F)cc12)NC(C)=O)[C@@H](C)O)C(=O)N[C@H]1CSSC[C@@H](C(=O)N[C@@H](Cc2c[nH]c3ncccc23)C(=O)N2C[C@H](F)C[C@H]2C(=O)N[C@H](CCCCNC(=O)CN2CCN(CC(=O)O)CCN(CC(=O)O)CCN(CC(=O)O)CC2)C(N)=O)NC(=O)[C@H](CC(=O)O)NC(=O)[C@H](Cc2c[nH]cn2)NC(=O)[C@H](Cc2ccc3ccccc3c2)NC(=O)[C@H](CC(N)=O)NC(=O)[C@H](CC(N)=O)NC1=O [compound 244, Ac-(5Fluoro-W)-T-(Nle)-C(3)-N-N-(2Nal)-H-D-C(3)-(7Aza-W)-(trans4Fluoro-P)-[D-Lys(DOTA)]-NH2] (Ac-[Trp(5-F)]T[Nle]CNN[2Nal]HDC[Trp(7-aza)][Pro(trans-4-F)][dK](DOTA)-NH2; disulfide 4-10)
10 | 1 to 10 | CC[C@H](C)[C@H](NC(=O)[C@@H](NC(=O)[C@H](Cc1c[nH]c2ccccc12)NC(C)=O)[C@@H](C)O)C(=O)N[C@H]1CSCc2ccc(cc2)CSC[C@@H](C(=O)N[C@@H](Cc2c[nH]c3ccccc23)C(=O)N2CCC[C@H]2C(=O)N[C@H](CCCCNC(=O)CN2CCN(CC(=O)O)CCN(CC(=O)O)CCN(CC(=O)O)CC2)C(N)=O)NC(=O)[C@H](CC(=O)O)NC(=O)[C@H](Cc2cnc[nH]2)NC(=O)[C@H](Cc2ccc3ccccc3c2)NC(=O)[C@H](CC(N)=O)NC(=O)[C@H](CC(N)=O)NC1=O [compound 256, Ac-W-T-I-C(3)(pDBX)-N-N-(2Nal)-H-D-C(2)-W-P-[D-Lys(DOTA)]-NH2] (Ac-WTICNN[2Nal]HDCWP[dK](DOTA)-NH2; linker 4-10 via pXylylene)

Source: patent publication US20250011368A1, “DLL3 TARGETING PEPTIDES AND CONSTRUCTS THEREOF” (MARIANA ONCOLOGY INC., priority 2023, published 2025)
